The assay has as its target T1, rACBP1 ((His)6-tagged recombinant AtACBP1) (Arabidopsis thaliana, UniProt Q9SM23).
T1 construct: gene ACBP1; (His)6-tagged, soluble fraction of E. coli BL21(DE3), Ni-NTA purified
T1 sequence (Q9SM23 1-338): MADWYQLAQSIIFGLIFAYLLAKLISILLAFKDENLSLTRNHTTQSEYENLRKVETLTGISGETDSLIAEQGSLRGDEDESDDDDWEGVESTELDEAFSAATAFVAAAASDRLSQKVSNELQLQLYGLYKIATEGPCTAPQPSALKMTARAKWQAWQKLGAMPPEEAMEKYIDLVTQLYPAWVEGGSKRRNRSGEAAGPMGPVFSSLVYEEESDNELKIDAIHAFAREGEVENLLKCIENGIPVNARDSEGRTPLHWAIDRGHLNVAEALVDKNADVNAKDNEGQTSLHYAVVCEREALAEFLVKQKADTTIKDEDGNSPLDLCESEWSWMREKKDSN
Description: isothermal titration calorimetry. It counts as binding. From the text:
isothermal titration calorimetry on rACBP1 ((His)6-tagged recombinant AtACBP1)
Background: ITC needs no label: the signal is the heat of the interaction.

Setting [1] is: 30 °C, single binding site model.

Where two headings read alike, the source gives them in different places.

As a reminder, the Kd is the concentration at which binding is half-saturated.

For the compound `CCCCCCCCCCCCCCCCCCCCCCCCCC(=O)SCCNC(=O)CCNC(=O)[C@H](O)C(C)(C)COP(=O)(O)OP(=O)(O)OC[C@H]1O[C@@H](n2cnc3c(N)ncnc32)[C@H](O)[C@@H]1OP(=O)(O)O` [C26:0, C26:0-CoA], the Kd turned out to be 1940 ± 120 nM.
The same measure, in the same setting: next, `CCCCCCCCCCCCCCCCCCCCCCCCC(=O)SCCNC(=O)CCNC(=O)[C@H](O)C(C)(C)COP(=O)(O)OP(=O)(O)OC[C@H]1O[C@@H](n2cnc3c(N)ncnc32)[C@H](O)[C@@H]1OP(=O)(O)O` [C25:0, C25:0-CoA]: 1690 ± 110 nM.
For C18:3-CoA, the Kd under setting [1] is 440 ± 10 nM.
With `CCCCCCCCCCCCCCCCCCCCCCCC(=O)SCCNC(=O)CCNC(=O)[C@H](O)C(C)(C)COP(=O)(O)OP(=O)(O)OC[C@H]1O[C@@H](n2cnc3c(N)ncnc32)[C@H](O)[C@@H]1OP(=O)(O)O` [C24:0, C24:0-CoA], the Kd is 2140 ± 130 nM.
As to C18:1-CoA, the Kd under setting [1] turned out to be 760 ± 150 nM.
Same read-out and setting: the figure for C18:2-CoA is 830 ± 40 nM.

Source of the values: paper PMC4157719, “Arabidopsis membrane-associated acyl-CoA-binding protein ACBP1 is involved in stem cuticle formation” (Journal of Experimental Botany, 2014).
